Assay results published in US11478526B2, “Methods of reducing neuroinflammation or toxicity induced by amyloid beta (abeta) using glucocorticoid induced leucine zipper (GILZ) analog peptides” (INDIANA UNIVERSITY RESEARCH AND TECHNOLOGY CORPORATION, priority 2016, dated 2022).

Experiments:
[1] = test system: HFNC; test: Morphology of HFNC under inverted bright field microscope; assay type: cell-based, human
[2] = target: T1, Recombinant human p65 protein (r-p65) (Homo sapiens, UniProt Q04206); test: Plate binding ELISA of GA/PGA with r-p65 (KD by method of Friguet)
T1 construct: purchased Ori-Gene Technologies Inc., Rockville, Md; TP320780
T1 sequence (Q04206 whole entry): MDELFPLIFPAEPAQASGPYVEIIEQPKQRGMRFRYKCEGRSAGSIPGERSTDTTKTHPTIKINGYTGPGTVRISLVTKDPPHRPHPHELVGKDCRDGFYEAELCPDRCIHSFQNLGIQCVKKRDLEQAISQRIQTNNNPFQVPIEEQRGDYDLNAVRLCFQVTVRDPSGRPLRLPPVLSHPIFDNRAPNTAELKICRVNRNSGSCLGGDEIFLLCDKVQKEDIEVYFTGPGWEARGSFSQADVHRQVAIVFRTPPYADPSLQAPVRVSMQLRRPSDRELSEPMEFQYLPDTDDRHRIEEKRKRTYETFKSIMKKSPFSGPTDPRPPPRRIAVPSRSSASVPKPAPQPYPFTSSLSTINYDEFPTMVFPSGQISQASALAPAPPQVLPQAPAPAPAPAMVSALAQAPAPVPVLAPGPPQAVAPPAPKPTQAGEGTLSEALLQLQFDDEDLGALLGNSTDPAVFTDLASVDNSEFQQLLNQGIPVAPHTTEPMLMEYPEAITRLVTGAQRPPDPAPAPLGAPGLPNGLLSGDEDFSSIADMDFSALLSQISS
Protocol: We used similar method to determine direct binding kinetics of GA hexapeptides with human r-p65. […] Absorbance at 650 nm was measured with a mixing time of 30 s using BIORAD microplate reader. […] The dissociation constant of the interaction between the GA or the control peptide and r-p65 was determined by the method of Friguet et al., as described. A fraction of the bound r-p65 (x) and the ratio of bound r-p65 to the free GA or control peptide (y) was determined by the equations: x=(A0−A)/(A0), where A0 is the absorbance of r-p65anti-p65 complex in the absence of bound GA or control peptide and y=(A0−A)/(a0−i0)×(A0−A)/(A0), where a0 is the total concentration of GA or control peptide and i0 is the total concentration of r-p65.
Kinetics of PGA:-p65 interaction: The binding kinetics of top five PGA with full length human r-p65 was assessed as described. Plate bound GILZ-P or PGA at increasing concentrations was probed with r-p65-DDK (Ori-Gene Technologies Inc., Rockville, Md.) at constant concentration and detected with anti-DDK.

[3] = test system: LPS induced neuroinflammation; test: LPS induced neuroinflammation: cytokine ELISA of brain homogenates; assay type: in vivo, mouse; conditions: 25 mg/kg i.v. alternate days, day 7
Protocol: (§1) Animals and lipopolysaccharide induced neuroinflammation: Male C57/6J mice weighing 32 to 37 grams were housed five per cage at a temperature of 22±2° C. with 12 hour light/12 hour dark cycles with free access to laboratory food and water. Lipopolysaccharides (LPS) from Escherichia coli 026:B6, =10,000 EU/mg, purified by phenol extraction was purchased from Sigma (Sigma Aldrich, Mo., USA). The mice were randomly divided into seven groups: LPS, LPS+GA-1 or GA-2 or CP-1 or CP-2 or CP-3 or TAT. The LPS was administered intraperitoneally at […] in 100 μl of sterile saline followed by corn oil in the morning daily for six days. The GA or CP was administered intravenously at 25 mg/kg in 100 μl of sterile saline on alternate days. Additional control group included mice receiving saline alone. All animals were sacrificed on day 7.
Enzyme linked immunosorbent assay for cytokines: Frozen brain tissue was homogenized in RIPA lysis buffer (50 mmol/LTris-HCl, pH 6.8, 150 mmol/L NaCl, 5 mmol/L EDTA, 0.5% sodium deoxycholate, 0.5% NP-40) supplemented with a cocktail containing protease and phosphatase inhibitors (Chemicon, Millipore) on ice and then centrifuged at 16,000×g for 30 min. Supernatant was stored at −80° C. until further analysis. […]

[4] = test system: LPS induced neuroinflammation; test: LPS induced neuroinflammation: immunohistochemistry of hippocampal gliosis; assay type: in vivo, mouse; conditions: 25 mg/kg intravenously on alternate days; for CD11b+p65+ glial cells in the hippocampus: day 7; for GFAP+ astroglial cells in the hippocampus / Iba1+ microglial cells in the hippocampus: day 7, vs control peptide or untreated
Protocol: as §1
Histology and immunohistochemistry: The mice were sacrificed on day 7 by intra-cardial perfusion of 25 ml of 0.9% saline. Brain from each mouse was removed, one half was immediately frozen and the other half fixed in 4% paraformaldehyde for 24 h and later in 10% neutral buffered formalin for additional 24 h. Fixed tissues were subsequently processed for paraffin embedding. Tissue sections (5μ) stained with Harris's haematoxylin and counterstained with eosin were assessed for inflammation.
Immunohistochemistry: Serial 5μ thick coronal sections of each brain specimen were immunostained for markers of microglial cells, astrocytes and NF-κB p65. Briefly, after deparaffinization and hydration sections were subjected to antigen retrieval by microwave incubation in 10 mM sodium citrate buffer (pH 6.0) followed by sequential incubation in 30% hydrogen peroxide and blocking buffer (Enzo biosciences,) to reduce non-specific binding. The sections were then stained with the following primary monoclonal antibodies from EMD Millipore Corporation, Temecula, Calif., USA: anti-Iba-1 (AIF1 clone: Cat. #MABN92) or anti-glial fibrillary acidic protein (GFAP) clone GA5 (Cat. #MAB3402, Millipore) or anti-CD11b (Cat. #MABF513) clone M1/70 or anti-NF-κB p65 subunit clone 12H11 (Cat. #MAB3026). For mono-staining of Iba-1 and GFAP, detection was with the use of IHC select immunoperoxidase secondary detection system (Millipore). The peroxidase conjugated streptavidin-biotin method was used and brown staining was considered positive. For dual staining of CD11b and NF-κB p65 detection was achieved using the […]® (mouse-HRP/rabbit-AP) IHC kit (Catalog #: ADI-950-100, ENZO Lifesciences, Farmingdale, N.Y., USA). For each marker, to confirm the specificity of the antibodies, a separate set of sections from each group were incubated with only the secondary antibodies, a condition in which no staining was present.
Quantitative analysis of staining intensity: Images of the IHC stained sections were captured using the NIKON Multiphoton microscope with attached DS Ri2 camera. Five areas encompassing the hippocampus of each brain section were analyzed using the ImageJ Software. The number and the relative optical density of Iba1+ and GFAP+ glial cells was determined using the multi-point tool and the IHC-tool box. A training for brown/red color was performed prior to measurement to define the threshold for positive selection. Regions of interest encompassing the hippocampus were identified in each section, and the corresponding images were quantified using integrated optical density, normalized to the background optical density. Measurement of pixel intensity was restricted to the DAB or AP stained pixels of cells within defined circularity. Five consecutive coronal sections were assessed for each mouse.

[5] = dissociation constant, KD, method of Friguet et al.

Substance | morphology of HFNC [1] | Kd ([2]; KD (uM), score 1/0) [µM] | Kd [2, 5] [µM] | IFN-γ in brain tissue [3] [pg/mL] | IL-6 in brain tissue homogenates [3] [pg/mL] | IL-12 in brain homogenates [3] [pg/mL] | TNF-α in brain homogenates [3] [pg/mL] | CD11b+p65+ glial cells in the hippocampus [4] | GFAP+ astroglial cells in the hippocampus [4] | Iba1+ microglial cells in the hippocampus [4] | affinity for binding r-p65 relative to r-GILZ [2]
Ac-EPAPESPQV-NH2 [PGA-4] | did not affect the morphology | > 3 | 3.28 |  |  |  |  |  |  |  | 
Ac-EPAPLAPYG-NH2 [GA-1] |  |  |  | 2863.2 ± 697.5 | 18.7 ± 2 | 92.0 ± 9.3 | 1500.1 ± 476 | significantly reduced in number and intensity | reduced | reduced | greater affinity for binding r-p65 than the full length r-GILZ
Ac-EPAPESPQV-NH2 [GA-2] |  |  |  | 3125.1 ± 815 | 19.6 ± 0.84 | 101.3 ± 15.9 | 1199.2 ± 356.4 | significantly reduced in number and intensity | reduced | reduced | greater affinity for binding r-p65 than the full length r-GILZ
Ac-EPAPLAPYG-NH2 [PGA-2] | did not affect the morphology | < 3 | 2.29 |  |  |  |  |  |  |  | 
